Experiment [1] concerns OPM-2 human multiple myeloma cell line. The experiment is described as follows: Cell Viability Assay (OPM-2 10 FBS), CellTiter-Glo. The settings on record: for IC50: read-out: OPM-2 10% FBS IC50 IP (μM), OPM-2 cells, 10% FBS, 16 h, CellTiter-Glo. In kind it is cell-based. In short, it runs like this:
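Compounds, serially diluted, were left on OPM-2 cells (3000 cells/well, 10% FBS RPMI 1640) for 16 h at 37° C. under 5% CO2.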
In general terms: ATP-based viability assays read luminescence as a measure of living cells.

For experiment [2], the target named is recombinant human Mcl-1 (Mcl-1/Bim interaction) (Homo sapiens (Human), UniProt Q07820). As to the kind of experiment: biochemical. In kind it is binding. The settings on record: cell free Mcl-1:Bim TR-FRET. For orientation: In TR-FRET formats the signal depends on donor and acceptor labels being close together.
The mark [3] stands for this setting: read-out: OPM-2 10% FBS IC50 IP, OPM-2 cells, 10% FBS, 16 h, CellTiter-Glo.
The mark [4] stands for this setting: Homo sapiens, OPM-2, 16 h, read-out: OPM-2 10% FBS IC50 IP, OPM-2 cells, 10% FBS, 16 h, CellTiter-Glo.

pIC50: −log10 of the molar value. Read-outs that look alike come from different tables or passages of the source. A value given as a limit tells only on which side of the number the result lay.

Sequence of recombinant human Mcl-1 (Mcl-1/Bim interaction) (Q07820 171-327): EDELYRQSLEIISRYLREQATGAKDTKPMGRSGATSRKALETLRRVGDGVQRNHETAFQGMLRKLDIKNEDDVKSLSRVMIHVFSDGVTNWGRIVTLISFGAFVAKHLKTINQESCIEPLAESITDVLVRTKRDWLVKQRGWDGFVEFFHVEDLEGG

Consider `CO[C@@]1(CN2CCN3CCOC[C@@H]3C2)/C=C/C[C@H](C)[C@@H](CCCl)S(=O)(=O)NC(=O)c2ccc3c(c2)N(C[C@@H]2CC[C@H]21)C[C@@]1(CCCc2cc(Cl)ccc21)CO3` [Example 366, (1S,3′R,6′R,7′S,8′E,11′S,12′R)-6-chloro-12′-(2-chloroethyl)-7′-((9aS)-hexahydropyrazino[2,1-c][1,4]oxazin-8(1H)-ylmethyl)-7′-methoxy-11′-methyl-3,4-dihydro-2H,15′H-spiro[naphthalene-1,22′-[20]oxa[13]thia[1,14]diazatetracyclo[14.7.2.0˜3,6˜.0˜19,24˜]pentacosa[8,16,18,24]tetraen]-15′-one 13′,13′-dioxide], for which, in experiment [1] (Homo sapiens, OPM-2, 16 h), the 50% inhibitory concentration (IC50) is 0.133 µM. Further, the pIC50 in experiment [2] (read-out: Mcl-1 HTRF IC50) is 9.61.
“(1S,3′R,6′R,7′R,11′S,12′R)-6-chloro-7′- hydroxy-11′,12′-dimethyl-7′-(1-methyl-4- piperidinyl)-3,4-dihydro-2H,15′H- spiro[naphthalene-1,22′- [20]oxa[13]thia[1,14]diazatetracyclo [14.7.2.0~3,6~.0~19,24~]pentacosa[16,18,24] trien]-15′-one 13′,13′-dioxide [Example 100382]”: the pIC50 is 6.51 in experiment [1] (setting [3]) and 9.33 in experiment [2] (read-out: Mel-1 HTRF IC50).
As for `CO[C@@]1(CN2CCN3CCN(C)CC3C2)/C=C/C[C@H](C)[C@@H](C)S(=O)(=O)NC(=O)c2ccc3c(c2)N(C[C@@H]2CC[C@H]21)C[C@@]1(CCCc2cc(Cl)ccc21)CO3` (single isomer, unassigned) [Example 216], the IC50 in experiment [1] (Homo sapiens, OPM-2, 16 h) came to 0.183 µM. The pIC50 in experiment [2] (read-out: Mcl-1 HTRF IC50) is 9.31.
Taken in the same sequence, the figures for `CO[C@@]1(CN2CCN([C@H]3CCOC3)CC2)/C=C/C[C@H](C)[C@@H](C)S(=O)(=O)NC(=O)c2ccc3c(c2)N(C[C@@H]2CC[C@H]21)C[C@@]1(CCCc2cc(Cl)ccc21)CO3` (stereo in doubt) [Example 275] were 0.082 µM and 9.75.
Regarding `CO[C@]1(CN2CCN3CC[C@H](F)C[C@@H]3C2)/C=C/C[C@H](C)[C@@H](C)S(=O)(=O)NC(=O)c2ccc3c(c2)N(C[C@@H]2CC[C@H]21)C[C@@]1(CCCc2cc(Cl)ccc21)CO3` (stereo in doubt) [Example 293], the pIC50 was 6.68 in experiment [1] (setting [3]) and 9.62 in experiment [2] (read-out: Mcl-1 HTRF IC50).
Regarding `CO[C@]1(CN2CCN3CCCCC[C@@H]3C2)/C=C/C[C@H](C)[C@@H](C)S(=O)(=O)NC(=O)c2ccc3c(c2)N(C[C@@H]2CC[C@H]21)C[C@@]1(CCCc2cc(Cl)ccc21)CO3` (stereo in doubt) [Example 87], the IC50 in experiment [1] (Homo sapiens, OPM-2, 16 h) was 0.141 µM. Besides, in experiment [2] (read-out: Mcl-1 HTRF IC50), the negative logarithm of the IC50 (pIC50) was 9.90.
Regarding `CO[C@@]1(C#CCCN2CCS(=O)(=O)CC2)/C=C/C[C@H](C)[C@@H](C)S(=O)(=O)NC(=O)c2ccc3c(c2)N(C[C@@H]2CC[C@H]21)C[C@@]1(CCCc2cc(Cl)ccc21)CO3` [Example 100456, (1S,3′R,6′R,7′S,8′E,11′S,12′R)-6-chloro-7′-(4-(1,1-dioxido-4-thiomorpholinyl)-1-butyn-1-yl)-7′-methoxy-11′,12′-dimethyl-3,4-dihydro-2H,15′H-spiro[naphthalene-1,22′-[20]oxa[13]thia[1,14]diazatetracyclo [14.7.2.0~3,6~.0~19,24~]pentacosa[8,16,18,24]tetraen]-15′-one 13′,13′-dioxide], the pIC50 in experiment [1] (setting [4]) was 5.91; in experiment [2] (read-out: Mel-1 HTRF IC50), 9.25.
Consider `CO[C@@]1(CN2CCN3CCOC[C@@H]3C2)/C=C/C[C@H](C)[C@H]2CCN(C(=O)c3ccc4c(c3)N(C[C@@H]3CC[C@H]31)C[C@@]1(CCCc3cc(Cl)ccc31)CO4)S2(=O)=O` [Example 364, (1S,3′R,6′R,7′S,8′E,11′S,12′R)-6-chloro-7′-((9aS)-hexahydropyrazino[2,1-c][1,4]oxazin-8(1H)-ylmethyl)-7′-methoxy-11′-methyl-3,4-dihydro-2H,16′H-spiro[naphthalene-1,23′-[21]oxa[27]thia[1,15]diazapentacyclo[15.7.2.1˜12,15˜.0˜3,6˜.0˜20,25˜]heptacosa[8,17,19,25]tetraen]-16′-one 27′,27′-dioxide], for which the half-inhibitory concentration (IC50) in experiment [1] (Homo sapiens, OPM-2, 16 h) was over 33.3 µM. Moreover, in experiment [2] (read-out: Mcl-1 HTRF IC50), the negative-log IC50 (pIC50) was 6.72.
For `COCC[C@@H]1[C@@H](C)C/C=C/[C@](CN2CCN3CCOC[C@@H]3C2)(OC)[C@@H]2CC[C@H]2CN2C[C@@]3(CCCc4cc(Cl)ccc43)COc3ccc(nc32)C(=O)NS1(=O)=O` [Example 20, (1S,3′R,6′R,7′S,8′E,11′S,12′R)-6-chloro-7′-((9aS)-hexahydropyrazino[2,1-c][1,4]oxazin-8(1H)-ylmethyl)-7′-methoxy-12′-(2-methoxyethyl)-11′-methyl-3,4-dihydro-2H,15′H-spiro[naphthalene-1,22′-[20]oxa[13]thia[1,14,25]triazatetracyclo[14.7.2.0˜3,6˜.0˜19,24˜]pentacosa[8,16,18,24]tetraen]-15′-one 13′,13′-dioxide], in that order: 0.022 µM and 10.09.
`CO[C@@]1(CN2CCN3CCC[C@@H]3C2)/C=C/C[C@H](C)[C@@H](C)S(=O)(=O)NC(=O)c2ccc3c(c2)N(C[C@@H]2CC[C@H]21)C[C@@]1(CCCc2cc(Cl)ccc21)CO3` (stereo in doubt) [Example 80]: the IC50 in experiment [1] (Homo sapiens, OPM-2, 16 h) came out at 0.205 µM. The pIC50 in experiment [2] (read-out: Mcl-1 HTRF IC50) was 8.81.
`CO[C@@]1(CC(=O)NC[C@@H](O)C(F)(F)F)/C=C/C[C@H](C)[C@@H](C)S(=O)(=O)NC(=O)c2ccc3c(c2)N(C[C@@H]2CC[C@H]21)C[C@@]1(CCCc2cc(Cl)ccc21)CO3.CO[C@@]1(CC(=O)NC[C@H](O)C(F)(F)F)/C=C/C[C@H](C)[C@@H](C)S(=O)(=O)NC(=O)c2ccc3c(c2)N(C[C@@H]2CC[C@H]21)C[C@@]1(CCCc2cc(Cl)ccc21)CO3` [Example 100563]: the values for the negative-log IC50 (pIC50) in experiment [1] (setting [4]) and in experiment [2] (read-out: Mel-1 HTRF IC50) were 6.29 and 10.19, respectively.
`COCCO[C@@]1(CN2CCN3CCCC[C@@H]3C2)/C=C/C[C@H](C)[C@@H](C)S(=O)(=O)NC(=O)c2ccc3c(c2)N(C[C@@H]2CC[C@H]21)C[C@@]1(CCCc2cc(Cl)ccc21)CO3` [Example 151, (1S,3′R,6′R,7′S,8′E,11′S,12′R)-6-chloro-7′-(2-methoxyethoxy)-11′,12′-dimethyl-7′-((9aR)-octahydro-2H-pyrido[1,2-a]pyrazin-2-ylmethyl)-3,4-dihydro-2H,15′H-spiro[naphthalene-1,22′-[20]oxa[13]thia[1,14]diazatetracyclo[14.7.2.0˜3,6˜.0˜19,24˜]pentacosa[8,16,18,24]tetraen]-15′-one 13′,13′-dioxide]: the IC50 in experiment [1] (Homo sapiens, OPM-2, 16 h) amounted to 0.462 µM. Moreover, in experiment [2] (read-out: Mcl-1 HTRF IC50), the pIC50 is 9.07.
Taken in the same sequence, the figures for `CO[C@]1(CN2CCN3CCCC[C@@H]3C2)/C=C/C[C@H](C)[C@@H](CCO[Si](c2ccccc2)(c2ccccc2)C(C)(C)C)S(=O)(=O)NC(=O)c2ccc3c(c2)N(C[C@@H]2CC[C@H]21)C[C@@]1(CCCc2cc(Cl)ccc21)CO3` [Example 359, (1S,3′R,6′R,7′R,8′E,11′S,12′R)-6-chloro-7′-methoxy-11′-methyl-12′-(2-(((2-methyl-2-propanyl)(diphenyl)silyl)oxy)ethyl)-7′-((9aR)-octahydro-2H-pyrido[1,2-a]pyrazin-2-ylmethyl)-3,4-dihydro-2H,15′H-spiro[naphthalene-1,22′-[20]oxa[13]thia[1,14]diazatetracyclo[14.7.2.0˜3,6˜.0˜19,24˜]pentacosa[8,16,18,24]tetraen]-15′-one 13′,13′-dioxide] were over 33.3 µM and 8.68.
Taken in the same sequence, the figures for `CCO[C@]1(CN2CCN3CCOC[C@@H]3C2)CCC[C@H](C)[C@@H](CCOC)S(=O)(=O)NC(=O)c2ccc3c(c2)N(C[C@@H]2CC[C@H]21)C[C@@]1(CCCc2ccccc21)CO3` [Example 517, (1S,3′R,6′R,7′R,11′S,12′R)-7′-ethoxy-7′-((9aS)-hexahydropyrazino[2,1-c][1,4]oxazin-8(1H)-ylmethyl)-12′-(2-methoxyethyl)-11′-methyl-3,4-dihydro-2H,15′H-spiro[naphthalene-1,22′-[20]oxa[13]thia[1,14]diazatetracyclo[14.7.2.0˜3,6˜.0˜19,24˜]pentacosa[16,18,24]trien]-15′-one 13′,13′-dioxide] were 0.252 µM and 9.59.
Taken in the same sequence, the figures for `CO[C@@]1(CN2CCN3CCCC[C@@H]3C2)/C=C/C[C@H](C)[C@@H](Cc2ccccc2)S(=O)(=O)NC(=O)c2ccc3c(c2)N(C[C@@H]2CC[C@H]21)C[C@@]1(CCCc2cc(Cl)ccc21)CO3` (single isomer, unassigned) [Example 104] were 0.782 µM and 8.95.
With `CO[C@]1(CN2CCN3CCCC[C@@H]3C2)/C=C/C[C@H](C)[C@@H](CCN(C)C)S(=O)(=O)NC(=O)c2ccc3c(c2)N(C[C@@H]2CC[C@H]21)C[C@@]1(CCCc2cc(Cl)ccc21)CO3` [Example 367, (1S,3′R,6′R,7′R,8′E,11′S,12′R)-6-chloro-12′-(2-(dimethylamino)ethyl)-7′-methoxy-11′-methyl-7′-((9aR)-octahydro-2H-pyrido[1,2-a]pyrazin-2-ylmethyl)-3,4-dihydro-2H,15′H-spiro[naphthalene-1,22′-[20]oxa[13]thia[1,14]diazatetracyclo[14.7.2.0˜3,6˜.0˜19,24˜]pentacosa[8,16,18,24]tetraen]-15′-one 13′,13′-dioxide], the IC50 in experiment [1] (Homo sapiens, OPM-2, 16 h) was 0.273 µM. Besides, the pIC50 in experiment [2] (read-out: Mcl-1 HTRF IC50) is 9.70.
For `CC(C)CO[C@@]1(CN2CCN(C3COC3)CC2)/C=C/C[C@H](C)[C@@H](C)S(=O)(=O)NC(=O)c2ccc3c(c2)N(C[C@@H]2CC[C@H]21)C[C@@]1(CCCc2cc(Cl)ccc21)CO3` [Example 348, (1S,3′R,6′R,7′S,8′E,11′S,12′R)-6-chloro-11′,12′-dimethyl-7′-(2-methylpropoxy)-7′-((4-(3-oxetanyl)-1-piperazinyl)methyl)-3,4-dihydro-2H,15′H-spiro[naphthalene-1,22′-[20]oxa[13]thia[1,14]diazatetracyclo[14.7.2.0˜3,6˜.0˜19,24˜]pentacosa[8,16,18,24]tetraen]-15′-one 13′,13′-dioxide], in that order: 5.36 µM and 8.58.

By IC50 is commonly meant the point on the concentration scale where inhibition reaches its midpoint. By pIC50 is commonly meant the IC50 on a negative log10 scale, so that one unit is a factor of ten.

Source of the values: patent publication US11224601B1, “Compounds that inhibits MCL-1 protein” (priority 2017, dated 2022).
